From PubChem BioAssay AID248 (DTP/NCI, 2004)
Several values for one entry are separate records, joined by “and”; a condition that tells them apart may be missing. Identical values can stand only once. Inconclusive results and toxic doses are left out. Cut-off read from the data, not from the text of the source: active = T/C of 150% or more; inactive = T/C below 125%.

Tested on: L1210 leukemia ip in BDF1 mice, survival T/C
Assay: NCI In Vivo Anticancer Drug Screen. Data for tumor model L1210 Leukemia (intraperitoneal) in B6D2F1 (BDF1) mice
Details: endpoint: mean survival time, higher = longer survival
Description: The antitumor activity of compounds was measured in mice bearing transplantable tumors. Survival or tumor size were measured and the results are expressed as the measurement made in the treated group (T) divided by the measurement made in the vehicle treated control group (C). The tumor model used in this assay is L1210 Leukemia (intraperitoneal) in B6D2F1 (BDF1) mice

[1] = dose: 100.0 mg/kg/injection, schedule: Q01DX001 (ip), vehicle: Klucel (hydroxypropylcellulose) (HPC)
[2] = dose: 200.0 mg/kg/injection, schedule: Q01DX001 (ip), vehicle: Klucel (hydroxypropylcellulose) (HPC)
[3] = dose: 400.0 mg/kg/injection, schedule: Q01DX001 (ip), vehicle: Klucel (hydroxypropylcellulose) (HPC)
[4] = dose: 100.0 mg/kg/injection, schedule: Q04DX003 (ip), vehicle: Klucel (hydroxypropylcellulose) (HPC)
[5] = dose: 200.0 mg/kg/injection, schedule: Q04DX003 (ip), vehicle: Klucel (hydroxypropylcellulose) (HPC)
[6] = dose: 400.0 mg/kg/injection, schedule: Q04DX003 (ip), vehicle: Klucel (hydroxypropylcellulose) (HPC)
[7] = dose: 100.0 mg/kg/injection, schedule: Q04DX002 (ip), vehicle: Klucel (hydroxypropylcellulose) (HPC)
[8] = dose: 200.0 mg/kg/injection, schedule: Q04DX002 (ip), vehicle: Klucel (hydroxypropylcellulose) (HPC)
[9] = dose: 400.0 mg/kg/injection, schedule: Q04DX002 (ip), vehicle: Klucel (hydroxypropylcellulose) (HPC)
[10] = dose: 100.0 mg/kg/injection, schedule: Q01DX001 (ip), vehicle: saline
[11] = dose: 100.0 mg/kg/injection, schedule: Q04DX003 (ip), vehicle: saline
[12] = dose: 200.0 mg/kg/injection, schedule: Q01DX001 (ip), vehicle: saline
[13] = dose: 400.0 mg/kg/injection, schedule: Q01DX001 (ip), vehicle: saline
[14] = dose: 100.0 mg/kg/injection, schedule: Q01DX009 (ip), vehicle: Klucel (hydroxypropylcellulose) (HPC)
[15] = dose: 200.0 mg/kg/injection, schedule: Q01DX009 (ip), vehicle: Klucel (hydroxypropylcellulose) (HPC)
[16] = dose: 25.0 mg/kg/injection, schedule: Q01DX009 (ip), vehicle: saline
[17] = dose: 50.0 mg/kg/injection, schedule: Q01DX009 (ip), vehicle: saline
[18] = dose: 100.0 mg/kg/injection, schedule: Q01DX009 (ip), vehicle: saline
[19] = dose: 200.0 mg/kg/injection, schedule: Q01DX009 (ip), vehicle: saline
[20] = dose: 400.0 mg/kg/injection, schedule: Q01DX009 (ip), vehicle: saline
[21] = dose: 100.0 mg/kg/injection, schedule: Q01DX009 (ip), vehicle: saline with Tween-80
[22] = dose: 200.0 mg/kg/injection, schedule: Q01DX009 (ip), vehicle: saline with Tween-80
[23] = dose: 400.0 mg/kg/injection, schedule: Q01DX009 (ip), vehicle: saline with Tween-80

Measured: T/C

CC1(C)OC(O)C(C(O)C(O)C(O)C(=O)O)O1 (stereo not drawn)
inactive: dose: 100.0 mg/kg/injection, schedule: Q04DX002 (ip), vehicle: saline 98 % of control | dose: 200.0 mg/kg/injection, schedule: Q04DX002 (ip), vehicle: saline 109 % of control

O=c1c2ccccc2c2ccccc2n1-c1ccccc1
inactive: [1] 97 % of control | [2] 94 % of control | [3] 91 % of control

O=c1oc2ccc(F)cc2c2ccccc12
inactive: [1] 92 % of control | [2] 103 % of control | [3] 90 % of control

CCC(CN)(c1cccs1)c1cccs1
inactive: [1] 87 % of control | [2] 97 % of control | [3] 103 % of control

C=CCc1cnc(SC)[nH]c1=O
inactive: [4] 102 % of control | [5] 97 % of control | [6] 93 % of control

O=c1[nH]c2c(c(=O)[nH]1)CCCCC2
inactive: [7] 95 % of control | [8] 89 % of control | [9] 92 % of control

CC(C)CCCC(C)C1CCC2C3CC(=O)NC4CC(Cl)CCC4(C)C3CCC12C (stereo not drawn)
inactive: [10] 89 % of control | [11] 86 % of control | [12] 93 % of control | [13] 91 % of control

CC/C(=N/O)c1ccccc1
inactive: dose: 100.0 mg/kg/injection, schedule: Q04DX003 (ip), vehicle: saline sonified 110 % of control | dose: 200.0 mg/kg/injection, schedule: Q04DX003 (ip), vehicle: saline sonified 95 % of control | dose: 400.0 mg/kg/injection, schedule: Q04DX003 (ip), vehicle: saline sonified 93 % of control

Cc1cc(=O)[nH]c(N/N=C2/CCCCC2C)n1 (stereo not drawn)
inactive: dose: 50.0 mg/kg/injection, schedule: Q01DX009 (ip), vehicle: Klucel (hydroxypropylcellulose) (HPC) 100 % of control | [14] 95 % of control | [4] 100 % of control | [15] 100 % of control | [5] 97 % of control

C1CC2CCCN2C1
inactive: dose: 12.5 mg/kg/injection, schedule: Q01DX009 (ip), vehicle: saline 93 % of control | [16] 93 % of control | [17] 95 % of control

Cc1ccc(S(=O)(=O)OC(CO)C(O)C(O)C(CO)OS(=O)(=O)c2ccc(C)cc2)cc1 (stereo not drawn) (tested in a mixture with another compound)
inactive: [7] 86 % of control | [8] 101 % of control | [9] 93 % of control

OCC1OC(n2ncc3c(Cl)ccnc32)C(O)C1O (stereo not drawn)
inactive: dose: 50.0 mg/kg/injection, schedule: Q01DX005 (ip), vehicle: other 91 % of control

O=C(O)C(F)(F)C(F)(Cl)C(F)(F)C(F)(Cl)C(F)(F)C(F)(Cl)C(F)(F)Cl (stereo not drawn)
inactive: [10] 96 % of control and 90 % of control | [12] 110 % of control and 93 % of control | [13] 107 % of control

CCCCCC(O)CCCCC
inactive: [18] 102 % of control | [19] 107 % of control | [20] 113 % of control

CN1C(=O)OC(C)(C)C1=O
inactive: [16] 98 % of control | dose: 25.0 mg/kg/injection, schedule: Q04DX003 (ip), vehicle: saline 93 % of control | [17] 95 % of control | dose: 50.0 mg/kg/injection, schedule: Q04DX003 (ip), vehicle: saline 109 % of control | [18] 102 % of control | [11] 98 % of control | [19] 96 % of control | dose: 200.0 mg/kg/injection, schedule: Q04DX003 (ip), vehicle: saline 109 % of control | [20] 106 % of control | dose: 400.0 mg/kg/injection, schedule: Q04DX003 (ip), vehicle: saline 98 % of control

NC(=O)C1CCCC12NC(=O)NC2=O (stereo not drawn)
inactive: [14] 104 % of control | [4] 100 % of control | [15] 94 % of control | [5] 103 % of control | dose: 400.0 mg/kg/injection, schedule: Q01DX009 (ip), vehicle: Klucel (hydroxypropylcellulose) (HPC) 93 % of control | [6] 97 % of control

CC(=O)Oc1ccc(OC(C)=O)c2c1C(=O)CCCC2=O
inactive: [21] 101 % of control | dose: 100.0 mg/kg/injection, schedule: Q04DX003 (ip), vehicle: saline with Tween-80 91 % of control | [22] 93 % of control | dose: 200.0 mg/kg/injection, schedule: Q04DX003 (ip), vehicle: saline with Tween-80 91 % of control | [23] 96 % of control | dose: 400.0 mg/kg/injection, schedule: Q04DX003 (ip), vehicle: saline with Tween-80 96 % of control

C1CCC(CCC(CCC2CCCCC2)CCC2CCCCC2)CC1
inactive: [1] 89 % of control | [2] 91 % of control | [3] 91 % of control

C1=CCC(OC2CCCCO2)=CC1 (stereo not drawn)
inactive: [21] 96 % of control | [22] 94 % of control | [23] 87 % of control

CC(=O)Oc1c2ccccc2c2c3c(cccc13)C(=O)O2
inactive: [1] 95 % of control | [2] 95 % of control | [3] 95 % of control

COC(=O)c1cccc(Cl)c1-c1c(Cl)cccc1C(=O)OC
inactive: [7] 96 % of control | [8] 108 % of control | [9] 92 % of control

OCC1OC(n2nnc3c(=S)nc[nH]c32)C(O)C1O (stereo not drawn)
inactive: dose: 3.3 mg/kg/injection, schedule: Q01DX009 (ip), vehicle: saline 101 % of control | dose: 5.0 mg/kg/injection, schedule: Q01DX009 (ip), vehicle: saline 95 % of control | dose: 7.5 mg/kg/injection, schedule: Q01DX009 (ip), vehicle: saline 94 % of control | dose: 11.25 mg/kg/injection, schedule: Q01DX009 (ip), vehicle: saline 101 % of control | dose: 15.0 mg/kg/injection, schedule: Q01DX001 (ip), vehicle: saline 96 % of control | dose: 18.0 mg/kg/injection, schedule: Q01DX009 (ip), vehicle: saline 106 % of control | dose: 25.0 mg/kg/injection, schedule: Q01DX001 (ip), vehicle: saline 98 % of control and 100 % of control | dose: 27.0 mg/kg/injection, schedule: Q01DX009 (ip), vehicle: saline 101 % of control | dose: 38.0 mg/kg/injection, schedule: Q01DX001 (ip), vehicle: saline 94 % of control | dose: 75.0 mg/kg/injection, schedule: Q01DX001 (ip), vehicle: saline 102 % of control | [10] 94 % of control and 98 % of control and 106 % of control | [12] 110 % of control

Clc1ccc2nsnc2c1
inactive: [1] 105 % of control | [2] 114 % of control

Nc1cc2c(cc1Br)-c1c(C(=O)O)cccc1C2=O
inactive: dose: 75.0 mg/kg/injection, schedule: Q01DX001 (ip), vehicle: carboxymethylcellulose (CMC) 101 % of control | dose: 150.0 mg/kg/injection, schedule: Q01DX001 (ip), vehicle: carboxymethylcellulose (CMC) 95 % of control | dose: 300.0 mg/kg/injection, schedule: Q01DX001 (ip), vehicle: carboxymethylcellulose (CMC) 98 % of control
